# Measured values from patent publication US11731972B2, “Spiro compounds as glycosidase inhibitors” (Asceneuron SA, priority 2018, dated 2023).
# pIC50: −log10 of the molar value.
# Biological target: His-Tagged hOGA (human O-GlcNAcase) (Homo sapiens (Human), UniProt O60502)
# Assay: Human O-GlcNAcase enzyme inhibition assay (Example B01)
# Format: biochemical
# Conditions: OGA enzyme inhibition assay; FL-GlcNAc substrate, 60 min, room temperature, pH 6.5
# Protocol: Example B01: Human O-GlcNAcase Enzyme Inhibition Assay
# 5 μl of the appropriate concentration of a solution of inhibitor in McIlvaine's Buffer (pH 6.5) in 2% DMSO (for a dose response curve calculation) is added into each well of a 384-well plate (Greiner, 781900). Then, 20 nM of His-Tagged hOGA and 10 μM of FL-GlcNAc (Fluorescein mono-beta-D-(2-deoxy-2-N-acetyl) glucopyranoside; Marker Gene Technologies Inc, M1485) were added to the 384-well plate for a final volume of 20 μl. After incubation for 60 min at room temperature, the reaction was terminated by the addition of 10 μL of stop buffer (200 mM glycine, pH 10.75). The level of fluorescence (λexc 485 nm; (λemm 520 nm) was read on a PHERAstar machine. The amount of fluorescence measured was plotted against the concentration of inhibitor to produce a sigmoidal dose response curve to calculate an IC50. All individual data was corrected by subtraction of the background (Thiamet 3 uM=100% inhibition) whilst 0.5% DMSO was considered as the control value (no inhibition).
# Sequence of His-Tagged hOGA (human O-GlcNAcase) (O60502 whole entry): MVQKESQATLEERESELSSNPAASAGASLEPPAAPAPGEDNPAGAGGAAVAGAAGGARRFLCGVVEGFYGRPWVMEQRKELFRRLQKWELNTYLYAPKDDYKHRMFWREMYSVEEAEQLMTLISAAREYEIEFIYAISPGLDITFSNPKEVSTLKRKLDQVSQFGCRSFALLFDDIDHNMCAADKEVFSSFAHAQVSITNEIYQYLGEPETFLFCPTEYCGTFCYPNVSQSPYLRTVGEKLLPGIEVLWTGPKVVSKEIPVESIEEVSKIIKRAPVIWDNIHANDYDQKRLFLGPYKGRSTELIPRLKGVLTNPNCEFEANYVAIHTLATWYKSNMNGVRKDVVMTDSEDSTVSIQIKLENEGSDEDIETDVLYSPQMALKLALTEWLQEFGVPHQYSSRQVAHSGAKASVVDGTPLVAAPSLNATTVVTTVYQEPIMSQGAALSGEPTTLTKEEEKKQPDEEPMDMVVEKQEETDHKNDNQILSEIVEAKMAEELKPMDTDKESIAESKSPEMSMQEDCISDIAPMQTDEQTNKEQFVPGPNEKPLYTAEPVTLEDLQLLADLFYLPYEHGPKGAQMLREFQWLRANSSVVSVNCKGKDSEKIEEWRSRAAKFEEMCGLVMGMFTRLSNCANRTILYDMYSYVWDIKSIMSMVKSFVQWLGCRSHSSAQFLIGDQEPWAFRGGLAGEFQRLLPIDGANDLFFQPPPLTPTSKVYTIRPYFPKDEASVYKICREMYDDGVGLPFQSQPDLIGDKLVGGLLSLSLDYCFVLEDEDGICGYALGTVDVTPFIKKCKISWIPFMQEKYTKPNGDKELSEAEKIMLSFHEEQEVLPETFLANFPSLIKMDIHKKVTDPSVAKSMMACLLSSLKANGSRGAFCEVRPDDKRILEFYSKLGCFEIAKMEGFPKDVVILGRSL
row,SMILES,pIC50
1,"CC(c1ccc2scnc2c1)N1CCC2(CC1)NC(=O)NC2=O (racemic) [Example 3, 8-(1-(benzo[d]thiazol-5-yl)ethyl)-1,3,8-triazaspiro[4.5]decane-2,4-dione]",5.00 to 6.00
2,"CC(c1ccc2c(c1)OCC2)N1CCC2(CC1)NC(=O)N(c1ccc(C#N)cc1)C2=O (racemic) [Example 12, 4-(8-(1-(2,3-dihydrobenzofuran-6-yl)ethyl)-2,4-dioxo-1,3,8-triazaspiro[4.5]decan-3-yl)benzonitrile]",> 7.30
3,"CC(c1ccc2scnc2c1)N1CCC2(CC1)NC(=O)N(c1ccc(C#N)cc1)C2=O (racemic) [Example 13, 4-(8-(1-(benzo[d]thiazol-5-yl)ethyl)-2,4-dioxo-1,3,8-triazaspiro[4.5]decan-3-yl)benzonitrile]",6.70 to 7.30
4,"CC(c1ccc2scnc2c1)N1CCC2(CC1)CC(=O)N(c1ccc(C#N)cc1)C2 (racemic) [Example 15, 4-(8-(1-(benzo[d]thiazol-5-yl)ethyl)-3-oxo-2,8-diazaspiro[4.5]decan-2-yl)benzonitrile]",5.00 to 6.00
5,"Cc1cc(N2CC3(CCN(C(C)c4ccc5c(c4)OCC5)CC3)CC2=O)n2nccc2n1 (racemic) [Example 16, 8-(1-(2,3-dihydrobenzofuran-6-yl)ethyl)-2-(5-methylpyrazolo[1,5-a]pyrimidin-7-yl)-2,8-diazaspiro[4.5]decan-3-one]",5.00 to 6.00
6,"CC(c1ccc2scnc2c1)N1CCC2(CC1)CC(=O)N(Cc1ccc(S(C)(=O)=O)cc1)C2 (racemic) [Example 17, 8-(1-(benzo[d]thiazol-5-yl)ethyl)-2-(4-(methylsulfonyl)benzyl)-2,8-diazaspiro[4.5]decan-3-one]",5.00 to 6.00
7,"CC(c1ccc2c(c1)OCC2)N1CCC2(CC1)CC(=O)N(c1ccc(C#N)cc1)C2 (racemic) [Example 19, 4-(8-(1-(2,3-dihydrobenzofuran-6-yl)ethyl)-3-oxo-2,8-diazaspiro[4.5]decan-2-yl)benzonitrile]",5.00 to 6.00
8,"CC(c1ccc2scnc2c1)N1CCC2(CC1)C(=O)Nc1ccccc12 (racemic) [Example 20, 1′-(1-(benzo[d]thiazol-5-yl)ethyl)spiro[indoline-3,4′-piperidin]-2-one]",6.00 to 6.70
9,"CC(c1ccc2c(c1)OCC2)N1CCC2(CC1)C(=O)Nc1ccccc12 (racemic) [Example 21, 1′-(1-(2,3-dihydrobenzofuran-6-yl)ethyl)spiro[indoline-3,4′-piperidin]-2-one]",6.00 to 6.70
10,"CC(c1ccc2scnc2c1)N1CCC2(CC1)C(=O)N(c1ccc(C#N)cc1)c1ccccc12 (racemic) [Example 25, 4-(1′-(1-(benzo[d]thiazol-5-yl)ethyl)-2-oxospiro[indoline-3,4′-piperidin]-1-yl)benzonitrile]",6.70 to 7.30
11,"CC(c1ccc2scnc2c1)N1CCC2(CCN(c3ccc(C#N)cc3)C2)CC1 (racemic) [Example 28, 4-(8-(1-(benzo[d]thiazol-5-yl)ethyl)-2,8-diazaspiro[4.5]decan-2-yl) benzonitrile]",6.00 to 6.70
12,"CC(c1ccc2scnc2c1)N1CCC2(CC1)C(=O)N(Cc1ccc(C#N)cc1)c1ccccc12 (racemic) [Example 29, 4-((1′-(1-(benzo[d]thiazol-5-yl)ethyl)-2-oxospiro[indoline-3,4′-piperidin]-1-yl)methyl)benzonitrile]",6.00 to 6.70
13,"CC(c1ccc2c(c1)OCC2)N1CCC2(CC1)C(=O)N(Cc1ccc(C#N)cc1)C(=O)N2Cc1ccc(C#N)cc1 (racemic) [Example 30, 4,4′-((8-(1-(2,3-dihydrobenzofuran-6-yl)ethyl)-2,4-dioxo-1,3,8-triazaspiro[4.5]decane-1,3-diyl)bis(methylene))dibenzonitrile]",6.00 to 6.70
14,"CC(c1ccc2scnc2c1)N1CCC2(CC1)CCN(S(C)(=O)=O)C2 (racemic) [Example 31, 5-(1-(2-(methylsulfonyl)-2,8-diazaspiro[4.5]decan-8-yl)ethyl) benzo[d]thiazole]",5.00 to 6.00
15,"CC(c1ccc2scnc2c1)N1CCC2(CC1)CN(c1ccc(F)cc1)C(=O)N2 (racemic) [Example 36, 8-(1-(benzo[d]thiazol-5-yl)ethyl)-3-(4-fluorophenyl)-1,3,8-triazaspiro[4.5]decan-2-one]",6.00 to 6.70

# The remaining lines, values ahead:
row,pIC50,SMILES
1,6.00 to 6.70,"CC(c1ccc2scnc2c1)N1CCC2(CC1)NC(=O)N(C)C2=O (racemic) [Example 1, 8-(1-(benzo[d]thiazol-5-yl)ethyl)-3-methyl-1,3,8-triazaspiro[4.5]decane-2,4-dione]"
2,6.00 to 6.70,"CC(c1ccc2c(c1)OCC2)N1CCC2(CC1)NC(=O)N(C)C2=O (racemic) [Example 2, 8-(1-(2,3-dihydrobenzofuran-6-yl)ethyl)-3-methyl-1,3,8-triazaspiro[4.5]decane-2,4-dione]"
3,6.70 to 7.30,"CC(c1ccc2c(c1)OCC2)N1CCC2(CC1)NC(=O)N(Cc1cncnc1)C2=O (racemic) [Example 4, 8-(1-(2,3-dihydrobenzofuran-6-yl)ethyl)-3-(pyrimidin-5-ylmethyl)-1,3,8-triazaspiro[4.5]decane-2,4-dione]"
4,6.70 to 7.30,CC(c1ccc2scnc2c1)N1CCC2(CC1)NC(=O)N(Cc1cncnc1)C2=O (racemic) [Example 5]
5,6.70 to 7.30,"COCCN1C(=O)NC2(CCN(C(C)c3ccc4c(c3)OCC4)CC2)C1=O (racemic) [Example 6, 8-(1-(2,3-dihydrobenzofuran-6-yl)ethyl)-3-(2-methoxyethyl)-1,3,8-triazaspiro[4.5]decane-2,4-dione]"
6,6.00 to 6.70,"COCCN1C(=O)NC2(CCN(C(C)c3ccc4scnc4c3)CC2)C1=O (racemic) [Example 7, 8-(1-(benzo[d]thiazol-5-yl)ethyl)-3-(2-methoxyethyl)-1,3,8-triazaspiro[4.5]decane-2,4-dione]"
7,6.70 to 7.30,CC(c1ccc2scnc2c1)N1CCC2(CC1)NC(=O)N(Cc1ccc(C(F)(F)F)nc1)C2=O (racemic) [Example 8]
8,6.70 to 7.30,CC(c1ccc2c(c1)OCC2)N1CCC2(CC1)NC(=O)N(Cc1ccc(C(F)(F)F)nc1)C2=O (racemic) [Example 9]
9,> 7.30,CC(c1ccc2c(c1)OCC2)N1CCC2(CC1)NC(=O)N(Cc1ccc(S(C)(=O)=O)cc1)C2=O (racemic) [Example 11]
10,6.00 to 6.70,"Cc1cc(N2CCC3(CCN(C(C)c4ccc5scnc5c4)CC3)C2)n2nccc2n1 (racemic) [Example 14, 5-(1-(2-(5-methylpyrazolo[1,5-a]pyrimidin-7-yl)-2,8-diazaspiro[4.5]decan-8-yl)ethyl)benzo[d]thiazole]"
11,6.00 to 6.70,"CC(c1ccc2c(c1)OCC2)N1CCC2(CC1)CC(=O)N(Cc1ccc(S(C)(=O)=O)cc1)C2 (racemic) [Example 18, 8-(1-(2,3-dihydrobenzofuran-6-yl)ethyl)-2-(4-(methylsulfonyl)benzyl)-2,8-diazaspiro[4.5]decan-3-one]"
12,6.70 to 7.30,"CC(c1ccc2scnc2c1)N1CCC2(CC1)NC(=O)N(Cc1ccc(C#N)cc1)C2=O (racemic) [Example 22, 4-((8-(1-(benzo[d]thiazol-5-yl)ethyl)-2,4-dioxo-1,3,8-triazaspiro[4.5]decan-3-yl)methyl)benzonitrile]"
13,6.00 to 6.70,"CC(c1ccc2scnc2c1)N1CCC2(CC1)C(=O)N(Cc1ccc(C#N)cc1)C(=O)N2Cc1ccc(C#N)cc1 (racemic) [Example 23, 4,4′-((8-(1-(benzo[d]thiazol-5-yl)ethyl)-2,4-dioxo-1,3,8-triazaspiro[4.5]decane-1,3-diyl)bis(methylene))dibenzonitrile]"
14,6.00 to 6.70,"CC(c1ccc2scnc2c1)N1CCC2(CC1)C(=O)N(Cc1ccc(S(C)(=O)=O)cc1)C(=O)N2Cc1ccc(S(C)(=O)=O)cc1 (racemic) [Example 24, 8-(1-(benzo[d]thiazol-5-yl)ethyl)-1,3-bis(4-(methylsulfonyl)benzyl)-1,3,8-triazaspiro[4.5]decane-2,4-dione]"
15,6.00 to 6.70,"CC(c1ccc2scnc2c1)N1CCC2(CCN(Cc3ccc(C#N)cc3)C2=O)CC1 (racemic) [Example 26, 4-((8-(1-(benzo[d]thiazol-5-yl)ethyl)-1-oxo-2,8-diazaspiro[4.5]decan-2-yl)methyl)benzonitrile]"
16,6.00 to 6.70,"CC(c1ccc2scnc2c1)N1CCC2(CCN(c3ccc(C#N)cc3)C2=O)CC1 (racemic) [Example 27, 4-(8-(1-(benzo[d]thiazol-5-yl)ethyl)-1-oxo-2,8-diazaspiro[4.5]decan-2-yl)benzonitrile]"
17,6.70 to 7.30,"CC(c1ccc2scnc2c1)N1CCC2(CC1)CN(Cc1ccc(C#N)cc1)C(=O)N2 (racemic) [Example 32, 4-((8-(1-(benzo[d]thiazol-5-yl)ethyl)-2-oxo-1,3,8-triazaspiro[4.5]decan-3-yl)methyl)benzonitrile]"
18,6.70 to 7.30,"CC(c1ccc2scnc2c1)N1CCC2(CC1)CN(c1ccc(C#N)cc1)C(=O)N2 (racemic) [Example 34, 4-(8-(1-(benzo[d]thiazol-5-yl)ethyl)-2-oxo-1,3,8-triazaspiro[4.5]decan-3-yl)benzonitrile]"
19,6.70 to 7.30,"CC(c1ccc2scnc2c1)N1CCC2(CC1)CN(c1cccc(S(C)(=O)=O)c1)C(=O)N2 (racemic) [Example 35, 8-(1-(benzo[d]thiazol-5-yl)ethyl)-3-(3-(methylsulfonyl)phenyl)-1,3,8-triazaspiro[4.5]decan-2-one]"
20,6.70 to 7.30,"CC(c1ccc2scnc2c1)N1CCC2(CC1)CN(c1cncnc1)C(=O)N2 (racemic) [Example 37, 8-(1-(benzo[d]thiazol-5-yl)ethyl)-3-(pyrimidin-5-yl)-1,3,8-triazaspiro[4.5]decan-2-one]"
21,> 7.30,CC(c1ccc2scnc2c1)N1CCC2(CC1)CN(c1cccnn1)C(=O)N2 (racemic) [Example 59]
